Results published in PMC11850406, “Large-scale screening of HIV-1 T-cell epitopes restricted by 12 prevalent HLA-A allotypes in Northeast Asia and universal detection of HIV-1-specific CD8^+ T cells” (Frontiers in Microbiology, 2025).
Read-outs that look alike come from different tables or passages of the source. Where no end group is shown, it is not given here.

Experiments:
HLA-A1102 = HLA-A1102 (Homo sapiens, UniProt P04439, A114D/D185E/E176A/E43K/F33Y/L180Q/S129P/T187R); experiment: cell-based; format: binding; details: A1102, 24 h, 4°C, flow cytometry
HLA-A3001 = biological target: T1, HLA-A3001 (Homo sapiens, UniProt P04439, D140H/D185E/E176W/F33S/G80R/H175R/K168Q/R138E/R41S); experiment: cell-based; format: binding; details: for inhibition at 5 µM / inhibition at 15 µM: 24 h; for inhibition at 5 µM: read-out: 5-μM inhibition (%); for inhibition at 15 µM: read-out: 15-μM inhibition (%)
T1 construct: expressed in transfected cells; host or cells: HMy2.CIR

HLA-A1101 = biological target: T2, HLA-A1101 (Homo sapiens, UniProt P04439, A114D/D185E/E176A/F33Y/L180Q/S129P/T187R); experiment: cell-based; format: binding
T2 construct: expressed in transfected cells; host or cells: HMy2.CIR

HLA-A0301 = biological target: T3, HLA-A0301 (Homo sapiens, UniProt P04439); experiment: cell-based; format: binding; details: for inhibition at 5 µM: read-out: 5-μM inhibition (%); for inhibition at 15 µM: read-out: 15-μM inhibition (%)
T3 construct: expressed in transfected cells; host or cells: HMy2.CIR

HLA-A0101 = biological target: T4, HLA-A0101 (Homo sapiens, UniProt P04439, A114D/A174V/A182V/D101N/D185E/E176A/E190D/L180R/Q94H/R68K/S129P/T187R/V100A/V91M/W191G); experiment: Peptide competitive binding assay, HMy2.CIR cells expressing A0101; details: for inhibition at 5 µM / inhibition at 15 µM: 24 h; for inhibition at 5 µM: read-out: 5-μM inhibition (%); for inhibition at 15 µM: read-out: 15-μM inhibition (%)
T4 construct: expressed in transfected cells; host or cells: HMy2.CIR

HLA-A0206 = biological target: T5, HLA-A0206 (Homo sapiens, UniProt P04439, D140Y/D185E/D98H/E176V/E277Q/F33Y/G131W/G231S/I119V/I121R/I166T/I218V/L300P/L318F/N151K/N90K/P208A/P217A/Q86G/Q94H/R138H/R169H/T345S); experiment: Peptide competitive binding assay, HMy2.CIR cells expressing A0206; details: for inhibition at 5 µM: peptide 5 μM vs FITC-labeled reference peptide 300 nM; for inhibition at 5 µM / inhibition at 15 µM: 24 h, 4°C, flow cytometry; for inhibition at 15 µM: peptide 15 μM vs FITC-labeled reference peptide 300 nM
T5 construct: expressed in transfected cells; host or cells: HMy2.CIR

HLA-A0201 = biological target: T6, HLA-A0201 (Homo sapiens, UniProt P04439, D140Y/D185E/D98H/E176V/E277Q/G131W/G231S/I119V/I121R/I166T/I218V/L300P/L318F/N151K/N90K/P208A/P217A/Q86G/Q94H/R138H/R169H/T345S); experiment: cell-based; format: binding; details: A0201, 24 h, 4°C, flow cytometry
T6 construct: expressed in transfected cells; host or cells: HMy2.CIR

HLA-A0203 = biological target: T7, HLA-A0203 (Homo sapiens, UniProt P04439, A173T/D140Y/D185E/D98H/E277Q/G131W/G231S/I119V/I121R/I166T/I218V/L180W/L300P/L318F/N151K/N90K/P208A/P217A/Q86G/Q94H/R138H/R169H/T345S); experiment: cell-based; format: binding
T7 construct: expressed in transfected cells; host or cells: HMy2.CIR

[1] = peptide 5 μM vs FITC-labeled reference peptide 300 nM, read-out: 5-μM inhibition (%)
[2] = peptide 15 μM vs FITC-labeled reference peptide 300 nM, read-out: 15-μM inhibition (%)
[3] = A0301, peptide 5 μM vs FITC-labeled reference peptide 300 nM, 24 h, 4°C, flow cytometry
[4] = A0301, peptide 15 μM vs FITC-labeled reference peptide 300 nM, 24 h, 4°C, flow cytometry
[5] = A0101, peptide 5 μM vs FITC-labeled reference peptide 300 nM, 4°C, flow cytometry
[6] = A0101, peptide 15 μM vs FITC-labeled reference peptide 300 nM, 4°C, flow cytometry

T3 sequence (P61769 21-119): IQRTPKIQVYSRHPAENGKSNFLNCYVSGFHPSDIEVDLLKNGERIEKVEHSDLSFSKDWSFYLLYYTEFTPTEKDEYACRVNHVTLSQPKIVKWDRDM
T3 sequence (P04439 25-365): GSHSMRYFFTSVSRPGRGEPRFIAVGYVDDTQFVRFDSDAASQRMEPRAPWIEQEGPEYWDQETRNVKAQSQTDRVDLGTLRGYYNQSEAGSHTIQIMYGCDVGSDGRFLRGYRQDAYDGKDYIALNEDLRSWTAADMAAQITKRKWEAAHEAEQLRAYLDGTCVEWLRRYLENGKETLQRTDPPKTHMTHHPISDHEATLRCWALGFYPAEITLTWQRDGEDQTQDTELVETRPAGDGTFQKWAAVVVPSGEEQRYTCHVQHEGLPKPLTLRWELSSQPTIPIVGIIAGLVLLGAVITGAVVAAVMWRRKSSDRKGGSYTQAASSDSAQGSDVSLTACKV
Sequence of HLA-A1102 (P04439 25-365 limits assumed, stated change not applied): as the sequence (P04439 25-365) above

CC[C@H](C)[C@H](NC(=O)[C@H](C)N)C(=O)N[C@@H](Cc1ccccc1)C(=O)N[C@@H](CCC(N)=O)C(=O)N[C@@H](CO)C(=O)N[C@@H](CO)C(=O)N[C@@H](CCSC)C(=O)N[C@H](C(=O)N[C@@H](CCCCN)C(=O)O)[C@@H](C)O [Peptide P40] gave an inhibition at 5 µM (HLA-A1102; [1]) of 2.89%, an inhibition at 15 µM (HLA-A1102; [2]) of 16.1% and an IC50 (HLA-A3001) of under 5 µM. It also gave an inhibition at 5 µM (HLA-A3001) of 60.4%, an inhibition at 15 µM (HLA-A3001) of 67.7% and an IC50 (HLA-A1101) of under 5 µM. It also gave an inhibition at 5 µM (HLA-A1101; A1101, peptide 5 μM vs FITC-labeled reference peptide 300 nM, 24 h, 4°C, flow cytometry, read-out: 5-μM inhibition (%)) of 67.9%, an inhibition at 15 µM (HLA-A1101; A1101, peptide 15 μM vs FITC-labeled reference peptide 300 nM, 24 h, 4°C, flow cytometry, read-out: 15-μM inhibition (%)) of 89.5% and an IC50 (HLA-A0301) of 5 to 15 µM. The inhibition at 5 µM (HLA-A0301; 24 h) was 22.4% and the inhibition at 15 µM (HLA-A0301; 24 h) was 50.6%.

With EADGKVSQNY [Peptide P67] the IC50 (HLA-A0101) was 5 to 15 µM, the inhibition at 5 µM (HLA-A0101) was 21.4% and the inhibition at 15 µM (HLA-A0101) was 62%.

KLAGRWPVK [Peptide P95] showed an IC50 (HLA-A3001) of under 5 µM, an inhibition at 5 µM (HLA-A3001; A3001, peptide 5 μM vs FITC-labeled reference peptide 300 nM, 4°C, flow cytometry) of 83.7% and an inhibition at 15 µM (HLA-A3001; A3001, peptide 15 μM vs FITC-labeled reference peptide 300 nM, 4°C, flow cytometry) of 95.9%. The IC50 (HLA-A0301) was 5 to 15 µM, the inhibition at 5 µM (HLA-A0301; [3]) was 28.9% and the inhibition at 15 µM (HLA-A0301; [4]) was 53.7%.

In the case of KLVSSGIRK [Peptide P85], the “5-μM inhibition (%)” value (HLA-A0301; [3]) is reported as 19.14% and the “15-μM inhibition (%)” value (HLA-A0301; [4]) is reported as 38.04%.

In the case of LLYWGQELK [Peptide P84], the IC50 (HLA-A0301) is reported as 5 to 15 µM, the inhibition at 5 µM (HLA-A0301; [3]) is reported as 25.7% and the inhibition at 15 µM (HLA-A0301; [4]) is reported as 56.2%.

RLINCNTSV [Peptide P6] was tested, and the inhibition at 5 µM (HLA-A0206) was 14.6%, the inhibition at 15 µM (HLA-A0206) was 41.8% and the inhibition at 5 µM (HLA-A0201; [1]) was 0.13%. It also gave an inhibition at 15 µM (HLA-A0201; [2]) of 23.6%, an IC50 (HLA-A0203) of 5 to 15 µM and an inhibition at 5 µM (HLA-A0203; A0203, peptide 5 μM vs FITC-labeled reference peptide 300 nM, 24 h, 4°C, flow cytometry, read-out: 5-μM inhibition (%)) of 15.8%. The inhibition at 15 µM (HLA-A0203; A0203, peptide 15 μM vs FITC-labeled reference peptide 300 nM, 24 h, 4°C, flow cytometry, read-out: 15-μM inhibition (%)) was 70.7%.

VTDSQYALGI [Peptide P69] showed an inhibition at 5 µM (HLA-A0101; [5]) of 35.6%, an inhibition at 15 µM (HLA-A0101; [6]) of 71.2% and an IC50 (HLA-A0101; read-out: Affinity) of 5 to 15 µM.

With WIILGLNKI [Peptide P72] the IC50 (HLA-A0206; class from inhibition at 5 and 15 μM of FITC-labeled reference peptide binding, read-out: Affinity) was 5 to 15 µM, the inhibition at 5 µM (HLA-A0206) was 40.9% and the inhibition at 15 µM (HLA-A0206) was 67.3%.

In the case of YSENSSEYY [Peptide P68], the IC50 (HLA-A0101; A0101, class from inhibition at 5 and 15 μM of FITC-labeled reference peptide binding, read-out: Affinity) is reported as under 5 µM, the inhibition at 5 µM (HLA-A0101; [5]) is reported as 83.8% and the inhibition at 15 µM (HLA-A0101; [6]) is reported as 94.2%.
